Reference: patent publication US9834534B2, “Neuraminidase inhibitor compounds, compositions and methods for the use thereof in anti-viral treatments” (THE UNIVERSITY OF BRITISH COLUMBIA, priority 2009, dated 2017)
Where “and” joins values, the source holds several entries; their conditions need not be identical. Identical values can stand only once. Like-named read-outs stand apart in the source and are kept apart here.

Tests used:
[1] = tested on: influenza A/Brisbane/10/2007 (H3N2); assay: microbe, parasite or virus in culture; assay type: cell-based, influenza A virus; conditions: for minimal effective concentration: Influenza A virus, H3N2, MDCK, read-out: Cytoprotective effect
[2] = tested on: influenza B/Florida/04/06; assay type: cell-based; conditions: for Relative activity: relative to Zanamivir
MDCK cells = conditions: dog
[3] = tested on: influenza B/HongKong/5/72; assay: microbe, parasite or virus in culture; assay type: cell-based, influenza B virus; conditions: for minimal effective concentration: Influenza B virus, MDCK, read-out: Cytoprotective effect
[4] = molecular target: influenza sialidase (subtype N9) (Influenza A virus, UniProt P03472); assay: biochemical; assay type: biochemical
Sequence of influenza sialidase (subtype N9) (P03472 whole entry, looked up): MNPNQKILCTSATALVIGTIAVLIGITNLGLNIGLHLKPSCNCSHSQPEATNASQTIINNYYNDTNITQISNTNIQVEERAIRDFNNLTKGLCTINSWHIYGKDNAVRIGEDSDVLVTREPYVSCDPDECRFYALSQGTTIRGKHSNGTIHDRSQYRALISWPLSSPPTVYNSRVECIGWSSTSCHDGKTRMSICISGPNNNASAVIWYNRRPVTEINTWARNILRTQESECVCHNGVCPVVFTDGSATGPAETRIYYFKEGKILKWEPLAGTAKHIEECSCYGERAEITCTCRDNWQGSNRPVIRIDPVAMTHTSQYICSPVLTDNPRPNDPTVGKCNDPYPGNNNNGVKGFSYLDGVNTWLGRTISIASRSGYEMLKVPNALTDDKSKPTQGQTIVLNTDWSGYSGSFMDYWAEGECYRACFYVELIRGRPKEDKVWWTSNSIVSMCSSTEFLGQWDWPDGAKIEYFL

[5] = tested on: influenza A/Denver/1/57 (H1N1); assay: microbe, parasite or virus in culture; assay type: cell-based, influenza A virus; conditions: for minimal effective concentration: Influenza A virus, H1N1, MDCK, read-out: Cytoprotective effect

Structure (SMILES)	minimal effective concentration [1]	Relative toxicity (MDCK cells)	Toxicity (MDCK cells)	Relative activity [3]	minimal effective concentration [3]	half time for the full inactivation of the sialidase [4]	Kd ([4]; 30° C., pH 7.6)	ki/Kd ([4]; pH 7.6)	Relative activity [5]	minimal effective concentration [5]	Relative activity [1]	further results
CCNC1C(F)[C@](F)(C(=O)O)OC([C@H](O)[C@H](O)CO)[C@@H]1NC(C)=O (stereo partly drawn) [Compound 7, (2R,3R)-4-(N-Ethyl) amino-2,4-dideoxy-2,3-difluorosialic acid]	0.122 µg/mL	72.7	7.8 µg/mL	0.57	3.91 µg/mL	ca. 10 min	14 µM	4.1 min⁻¹ mM⁻¹	0.001	3.91 µg/mL	–	Cytoprotective effect [1]: 61.0 ng/mL; Cytoprotective effect ([2]; Replicate 1): 3267 ng/mL; Relative activity ([2]; Replicate 1): 0.67; Cytoprotective effect ([2]; Replicate 2): 3267 ng/mL; Relative activity ([2]; Replicate 2): 0.27
CCOC(=O)[C@]1(F)OC([C@H](O)[C@H](O)CO)[C@H](NC(C)=O)C(N)C1F (stereo partly drawn) [Compound 5, Ethyl (2R,3R)-4-Amino-2,4-dideoxy-2,3-difluorosialylate]	0.0076 µg/mL	4.5	125.0 µg/mL	2.27	0.977 µg/mL	–	–	–	0.009	0.488 µg/mL	36.4 and 48.6	Cytoprotective effect ([2]; Replicate 1): 290 ng/mL; Relative activity ([2]; Replicate 1): 7.7; Cytoprotective effect ([2]; Replicate 2): 290 ng/mL; Relative activity ([2]; Replicate 2): 3.1
CCOC(=O)[C@]1(F)OC([C@H](O)[C@H](O)CO)[C@H](NC(C)=O)C(NC(=N)N)C1F (stereo partly drawn) [Compound 13, Ethyl (2R,3R)-4-Guanyl-2,4-dideoxy-2,3-difluorosialylate]	0.0444 µg/mL	400.0	1.4 µg/mL	3.13	0.71 µg/mL	–	–	–	0.006	0.71 µg/mL	6.3 and 8.3	–
CC(=O)N[C@@H]1C(N)C(F)[C@](F)(C(N)=O)OC1[C@H](O)[C@H](O)CO (stereo partly drawn) [Compound 9, (2R,3R)-4-Amino-2,4-dideoxy-2,3-difluorosialylamide]	0.118 µg/mL	75.5	7.5 µg/mL	0.15	15.1 µg/mL	ca. 10 min	1020 µM	0.34 min⁻¹ mM⁻¹	0.001	3.76 µg/mL	2.4	–
CC(=O)N[C@@H]1C(O)C(F)[C@](F)(C(=O)O)OC1[C@H](O)[C@H](O)CO (stereo partly drawn) [Compound 23DFSA, 2,3-Difluorosialic acid, reference compound]	–	–	–	0.07	34.1 µg/mL	–	–	–	0.001	4.26 µg/mL	–	ki/Kd ([4]; 4° C.): 196 and 196^b min^−1mM^−1
CC(=O)NC1C(F)[C@](F)(C(=O)O)OC([C@H](O)[C@H](O)CO)[C@@H]1NC(C)=O (stereo partly drawn) [Compound 11, (2R,3R)-4-(N-Acetyl) amino-2,4-dideoxy-2,3-difluorosialic acid]	1.6 µg/mL	5.6	102.3 µg/mL	–	–	ca. 10 min	397 µM	0.53 min⁻¹ mM⁻¹	–	–	0.2	–
CC(=O)N[C@@H]1C(N=[N+]=[N-])C(F)[C@](F)(C(=O)O)OC1[C@H](O)[C@H](O)CO (stereo partly drawn) [Compound 8, (2R,3R)-4-Azido-2,4-dideoxy-2,3-difluorosialic acid]	0.104 µg/mL	10.6	53.4 µg/mL	–	–	–	–	–	–	–	2.7	Kd ([4]; 4° C.): 240 µM; fold lower kinetic value (ki/Kd) than 23DFSA ([4]; 4° C.): 26 fold; ki/Kd ([4]; 4° C.): 7.5 and 7.5^b min^−1mM^−1
CC(=O)N[C@@H]1C(NCc2ccccc2)C(F)[C@](F)(C(=O)O)OC1[C@H](O)[C@H](O)CO (stereo partly drawn) [C4 Bn]	–	–	–	–	–	–	306 µM	0.61 min⁻¹ mM⁻¹	–	–	–	Ki ([4]; 30° C., pH 7.6): 4.08 µM; khyd ([4]; 30° C., pH 7.6): 0.0025 min⁻¹
